Measured values from ChEMBL document CHEMBL5465560, “Selectivity Literature for EUbOPEN Chemogenomic Library” (2024).

Columns and labels:
[1] = tested on: T1, Receptor-type tyrosine-protein kinase FLT3 (Homo sapiens), P36888 [D835Y]; details: at 10 µM
T1 sequence (whole entry): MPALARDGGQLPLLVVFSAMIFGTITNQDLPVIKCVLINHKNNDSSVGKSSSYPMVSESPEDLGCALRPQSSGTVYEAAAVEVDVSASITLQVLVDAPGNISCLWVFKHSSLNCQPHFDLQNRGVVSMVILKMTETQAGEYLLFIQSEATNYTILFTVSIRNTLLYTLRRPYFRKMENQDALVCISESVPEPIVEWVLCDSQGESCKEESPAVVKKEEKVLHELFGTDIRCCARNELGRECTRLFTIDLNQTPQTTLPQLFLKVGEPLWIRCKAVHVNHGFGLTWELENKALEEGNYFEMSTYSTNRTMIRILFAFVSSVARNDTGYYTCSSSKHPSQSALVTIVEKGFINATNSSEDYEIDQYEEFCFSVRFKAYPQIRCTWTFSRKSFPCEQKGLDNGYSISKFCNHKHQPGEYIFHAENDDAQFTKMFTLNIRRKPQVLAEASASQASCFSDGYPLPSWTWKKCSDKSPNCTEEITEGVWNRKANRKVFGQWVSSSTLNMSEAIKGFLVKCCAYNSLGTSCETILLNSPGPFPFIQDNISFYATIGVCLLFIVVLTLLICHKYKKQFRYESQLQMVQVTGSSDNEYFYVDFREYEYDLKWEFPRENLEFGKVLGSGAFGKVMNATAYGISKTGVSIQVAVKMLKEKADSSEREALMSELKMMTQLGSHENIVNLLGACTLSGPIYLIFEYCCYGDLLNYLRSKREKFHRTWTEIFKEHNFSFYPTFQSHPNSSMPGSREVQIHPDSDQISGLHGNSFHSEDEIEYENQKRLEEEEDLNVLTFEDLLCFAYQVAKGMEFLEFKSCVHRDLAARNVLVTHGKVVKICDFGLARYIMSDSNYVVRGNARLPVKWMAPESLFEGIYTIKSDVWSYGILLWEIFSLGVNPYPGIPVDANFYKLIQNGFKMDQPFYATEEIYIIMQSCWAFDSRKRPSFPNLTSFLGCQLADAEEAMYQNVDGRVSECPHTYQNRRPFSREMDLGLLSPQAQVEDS

[2] = biological target: Serine/threonine-protein kinase Nek7 (Homo sapiens) (UniProt Q8TDX7); test: Selectivity interaction (Upstate Kinase Profiler service (Millipore)) EUB0000056c NEK7; details: at 1 µM
Sequence of Serine/threonine-protein kinase Nek7 (Homo sapiens) (Q8TDX7 whole entry, looked up): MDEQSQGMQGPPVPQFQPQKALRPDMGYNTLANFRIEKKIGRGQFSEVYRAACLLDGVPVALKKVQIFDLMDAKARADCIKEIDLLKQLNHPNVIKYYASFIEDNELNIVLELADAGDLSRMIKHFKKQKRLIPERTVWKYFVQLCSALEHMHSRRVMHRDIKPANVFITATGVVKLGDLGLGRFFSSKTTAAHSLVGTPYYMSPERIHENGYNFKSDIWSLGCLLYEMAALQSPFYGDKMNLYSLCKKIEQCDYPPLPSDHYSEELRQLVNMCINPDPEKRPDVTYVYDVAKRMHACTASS

[3] = biological target: T2, Ephrin type-B receptor 2 (Homo sapiens) (UniProt P29323); test: Selectivity interaction (KinomeScan (DiscoverX)) EUB0000655a EPHB2; details: at 10 µM
T2 sequence (whole entry): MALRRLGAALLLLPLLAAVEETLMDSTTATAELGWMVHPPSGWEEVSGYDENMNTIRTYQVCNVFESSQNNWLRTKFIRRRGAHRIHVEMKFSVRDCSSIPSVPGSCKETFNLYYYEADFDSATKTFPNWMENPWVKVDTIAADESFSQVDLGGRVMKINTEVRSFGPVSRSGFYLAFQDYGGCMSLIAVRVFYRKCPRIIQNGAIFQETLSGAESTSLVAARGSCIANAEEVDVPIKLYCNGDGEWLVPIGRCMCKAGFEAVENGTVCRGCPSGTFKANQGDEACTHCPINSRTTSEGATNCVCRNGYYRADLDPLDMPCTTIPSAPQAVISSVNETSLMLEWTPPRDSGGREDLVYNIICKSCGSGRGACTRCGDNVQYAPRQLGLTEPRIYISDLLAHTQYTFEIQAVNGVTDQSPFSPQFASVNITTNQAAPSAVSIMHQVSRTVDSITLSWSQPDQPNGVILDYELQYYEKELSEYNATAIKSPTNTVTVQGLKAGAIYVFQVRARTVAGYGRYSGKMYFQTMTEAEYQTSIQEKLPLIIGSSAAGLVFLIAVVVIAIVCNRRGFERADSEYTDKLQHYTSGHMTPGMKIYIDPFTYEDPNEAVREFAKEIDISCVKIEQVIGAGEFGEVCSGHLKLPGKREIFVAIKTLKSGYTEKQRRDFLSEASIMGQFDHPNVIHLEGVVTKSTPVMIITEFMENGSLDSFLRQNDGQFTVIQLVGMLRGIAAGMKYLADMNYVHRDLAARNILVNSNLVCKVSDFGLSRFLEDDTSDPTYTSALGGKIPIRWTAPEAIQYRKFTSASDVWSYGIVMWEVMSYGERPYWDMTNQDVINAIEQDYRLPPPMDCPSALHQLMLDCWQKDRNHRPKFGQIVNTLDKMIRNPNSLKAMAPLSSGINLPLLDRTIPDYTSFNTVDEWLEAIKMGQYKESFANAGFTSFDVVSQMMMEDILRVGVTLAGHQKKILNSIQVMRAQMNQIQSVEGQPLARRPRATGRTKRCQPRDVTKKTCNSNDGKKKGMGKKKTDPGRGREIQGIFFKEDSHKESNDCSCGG

[4] = biological target: Ribosomal protein S6 kinase alpha-2 (Homo sapiens) (UniProt Q15349); details: at 10 µM
Sequence of Ribosomal protein S6 kinase alpha-2 (Homo sapiens) (Q15349 whole entry): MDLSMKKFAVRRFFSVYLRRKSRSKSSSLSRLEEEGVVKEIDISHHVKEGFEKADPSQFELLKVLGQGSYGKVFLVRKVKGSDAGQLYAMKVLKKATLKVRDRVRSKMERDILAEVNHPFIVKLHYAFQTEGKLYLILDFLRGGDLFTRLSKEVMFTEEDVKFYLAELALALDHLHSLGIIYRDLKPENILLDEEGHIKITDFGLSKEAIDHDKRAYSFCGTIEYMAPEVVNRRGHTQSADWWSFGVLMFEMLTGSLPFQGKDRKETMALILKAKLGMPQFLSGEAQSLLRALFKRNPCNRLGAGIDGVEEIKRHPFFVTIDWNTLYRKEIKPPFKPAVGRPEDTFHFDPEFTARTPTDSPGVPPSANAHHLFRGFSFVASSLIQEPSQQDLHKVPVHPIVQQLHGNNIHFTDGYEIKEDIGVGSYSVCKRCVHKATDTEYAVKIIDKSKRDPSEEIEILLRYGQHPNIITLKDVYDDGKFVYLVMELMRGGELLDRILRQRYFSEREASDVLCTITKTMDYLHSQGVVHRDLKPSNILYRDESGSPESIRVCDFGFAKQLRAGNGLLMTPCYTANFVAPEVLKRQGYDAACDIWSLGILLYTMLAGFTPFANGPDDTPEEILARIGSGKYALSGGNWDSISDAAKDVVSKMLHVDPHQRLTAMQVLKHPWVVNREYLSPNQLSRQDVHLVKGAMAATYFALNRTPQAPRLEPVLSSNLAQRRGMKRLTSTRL

[5] = biological target: T3, Dual specificity mitogen-activated protein kinase kinase 6 (Homo sapiens) (UniProt P52564); test: Selectivity interaction (ActivX KiNativ screen (kinase selectivity in THP-1 cell lysates)) EUB0000639a MAP2K6; format: subcellular; details: lysate, at 0.2 µM
T3 sequence (whole entry): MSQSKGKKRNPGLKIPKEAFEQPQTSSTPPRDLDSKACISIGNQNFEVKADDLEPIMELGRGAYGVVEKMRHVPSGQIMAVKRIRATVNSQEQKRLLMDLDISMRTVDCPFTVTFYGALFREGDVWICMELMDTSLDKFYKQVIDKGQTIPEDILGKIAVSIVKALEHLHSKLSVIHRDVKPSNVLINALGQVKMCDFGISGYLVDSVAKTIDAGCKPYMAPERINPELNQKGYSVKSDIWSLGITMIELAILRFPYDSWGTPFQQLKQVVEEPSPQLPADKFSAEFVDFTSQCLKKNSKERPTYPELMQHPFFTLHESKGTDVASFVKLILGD

[6] = tested on: Fibroblast growth factor receptor 3 (Homo sapiens), P22607 [G697C]; test: (§1) Selectivity interaction (KinomeScan (DiscoverX)) EUB0000618a FGFR3; details: at 10 µM
Sequence of Fibroblast growth factor receptor 3 (Homo sapiens), P22607 [G697C] (P22607 whole entry G697C): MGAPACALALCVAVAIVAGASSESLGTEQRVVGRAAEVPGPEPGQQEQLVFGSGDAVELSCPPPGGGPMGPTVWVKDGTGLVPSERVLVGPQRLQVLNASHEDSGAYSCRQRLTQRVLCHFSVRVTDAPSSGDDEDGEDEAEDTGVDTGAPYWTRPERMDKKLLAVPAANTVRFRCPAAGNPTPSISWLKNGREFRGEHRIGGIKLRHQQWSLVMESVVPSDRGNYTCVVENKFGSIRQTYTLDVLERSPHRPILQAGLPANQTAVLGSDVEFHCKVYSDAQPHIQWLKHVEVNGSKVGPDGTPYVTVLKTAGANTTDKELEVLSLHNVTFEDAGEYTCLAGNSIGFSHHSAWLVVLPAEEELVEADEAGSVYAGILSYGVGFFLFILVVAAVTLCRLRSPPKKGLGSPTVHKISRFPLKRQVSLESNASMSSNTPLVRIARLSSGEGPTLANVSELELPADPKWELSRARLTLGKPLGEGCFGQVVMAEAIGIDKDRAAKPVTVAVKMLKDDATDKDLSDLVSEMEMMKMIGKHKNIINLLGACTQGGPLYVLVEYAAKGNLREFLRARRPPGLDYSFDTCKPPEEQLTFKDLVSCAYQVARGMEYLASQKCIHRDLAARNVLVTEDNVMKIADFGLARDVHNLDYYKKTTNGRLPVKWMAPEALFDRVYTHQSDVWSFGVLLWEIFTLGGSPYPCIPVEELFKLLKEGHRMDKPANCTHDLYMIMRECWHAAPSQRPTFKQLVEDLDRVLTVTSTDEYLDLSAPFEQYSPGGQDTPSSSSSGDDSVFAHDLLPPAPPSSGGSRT

[7] = biological target: Fibroblast growth factor receptor 3 (Homo sapiens, UniProt P22607); test: as §1; details: at 10 µM
Sequence of Fibroblast growth factor receptor 3 (P22607 23-806 limits assumed): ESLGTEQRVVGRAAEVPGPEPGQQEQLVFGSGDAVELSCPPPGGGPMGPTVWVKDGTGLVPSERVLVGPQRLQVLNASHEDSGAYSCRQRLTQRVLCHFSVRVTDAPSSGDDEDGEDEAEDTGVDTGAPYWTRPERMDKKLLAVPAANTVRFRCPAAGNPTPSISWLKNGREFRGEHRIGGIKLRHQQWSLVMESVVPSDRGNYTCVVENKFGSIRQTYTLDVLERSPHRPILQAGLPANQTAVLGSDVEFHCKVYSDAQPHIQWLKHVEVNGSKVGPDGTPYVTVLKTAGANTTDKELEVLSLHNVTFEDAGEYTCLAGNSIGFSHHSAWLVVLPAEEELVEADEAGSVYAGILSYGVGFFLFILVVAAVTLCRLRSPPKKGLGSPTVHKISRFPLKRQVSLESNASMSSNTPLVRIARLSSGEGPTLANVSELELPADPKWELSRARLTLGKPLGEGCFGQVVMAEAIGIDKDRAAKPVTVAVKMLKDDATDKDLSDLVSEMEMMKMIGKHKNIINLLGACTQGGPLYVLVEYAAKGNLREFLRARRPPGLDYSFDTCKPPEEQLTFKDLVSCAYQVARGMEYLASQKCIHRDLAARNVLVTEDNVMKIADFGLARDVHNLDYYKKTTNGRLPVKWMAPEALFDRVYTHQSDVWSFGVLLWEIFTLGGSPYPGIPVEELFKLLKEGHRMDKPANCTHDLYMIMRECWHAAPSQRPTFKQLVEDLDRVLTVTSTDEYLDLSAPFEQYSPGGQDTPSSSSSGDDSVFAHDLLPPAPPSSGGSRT

For `CCN(CC)CCCCNc1ncc2cc(-c3cc(OC)cc(OC)c3)c(NC(=O)NC(C)(C)C)nc2n1`, which % of control [1] is on record?
The % of control was 100%.

Which % of inhibition [2] does the source give for `Cc1ccc(-c2ccc3c(ccc4sc5c(c43)NC[C@@H](C)NC5=O)n2)cn1` here?
The % of inhibition was -3%.

`CN(C)CCOc1ccc(-c2nc(-c3ccncc3)c(-c3ccc4c(c3)CC/C4=N\O)[nH]2)cc1` was tested. Which % of control [3] did it give?
The % of control was 98%.

With `Cc1cc([C@@H](C)Nc2ccccc2C(=O)O)c2nc(N3CCOCC3)cc(=O)n2c1` [AZD-6482] as the compound, how does the % of control [4] read?
The % of control was 97%.

For `CC[C@@H]1[C@H](F)C(=O)N[C@@H]1COc1nccc2cc(C(N)=O)c(OC)cc12` [ZIMLOVISERTIB], which % of inhibition [5] is on record?
Its % of inhibition is 12.8%.

Which results are given for `O[C@H]1CC[C@H](Nc2ncc3nc(Nc4c(F)cc(F)cc4F)n([C@H]4CCOC4)c3n2)CC1`?
% of control [6]: 82%; % of control [7]: 88%
